Assay results from patent US12129265B2, “Therapeutic agents and uses thereof” (Ankh Life Sciences Limited, priority 2020, dated 2024).
Where two headings read alike, the source gives them in different places. Values belong to the molecule of their own block, whether it stands above or below them.

Tests used:
Assay in all cases: CellTiter-Glo in vitro cell proliferation assay, Example 8
Format in all cases: cell-based, Human
H929 cells = details: NCI-H929
How it was run: (§1)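 Growth was assessed on cells given 24 h to settle at 37 °C, then incubated 72 h with compound (0.0075–100 μM, DMSO carrier). A room-temperature, 60 min CellTiter-Glo step preceded luminescence measurement.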

JIM1 cells = tested on: JIM1 cells
How it was run: as §1

KMS-34 cells = tested on: KMS-34 cells
How it was run: as §1

A2780 cells = details: Homo sapiens, A2780, Ovarian
How it was run: as §1

KHM-1B cells = tested on: KHM-1B cells
How it was run: as §1

A2780CP cells = details: Homo sapiens, A2780C/P
How it was run: as §1

MDA-MB-468 cells = details: Homo sapiens, MDA-MB-468, Triple Negative Breast
How it was run: as §1

KMS-11 cells = tested on: KMS-11 cells
How it was run: as §1

MM.1s cells = details: MM1.S
How it was run: as §1

A498 cells = details: Homo sapiens
How it was run: as §1

KMM-1 cells = tested on: KMM-1 cells
How it was run: as §1

H1975 (EGFR mut) cells = details: Homo sapiens
How it was run: as §1

FaDu cells = details: Homo sapiens
How it was run: as §1

MDA-MB-231 cells = details: Homo sapiens, MDA-MB-231, Triple Negative Breast
How it was run: as §1

HEC-1a cells = details: Homo sapiens
How it was run: as §1

L363 cells = details: L-363
How it was run: as §1

BxPC-3 cells = details: Homo sapiens, BxPC-3, Pancreatic
How it was run: as §1

SiHA cells = details: Homo sapiens
How it was run: as §1

OCI-LY3 cells = details: Homo sapiens, OCI-LY3, Diffuse Large B-Cell Lymphoma
How it was run: as §1

DOHH-2 cells = details: Homo sapiens, DOHH-2, Diffuse Large B-Cell Lymphoma
How it was run: as §1

AN3CA cells = details: Homo sapiens, AN3-CA
How it was run: as §1

KMS-27 cells = tested on: KMS-27 cells
How it was run: as §1

HCC70 cells = details: Homo sapiens, HCC70, Triple Negative Breast
How it was run: as §1

MIA PaCa-2 cells = details: Homo sapiens, MIA PaCa-2, Pancreatic
How it was run: as §1

MOLP-8 cells = tested on: MOLP-8 cells
How it was run: as §1

[1] = Squamous, 72 hours, read-out: Mean IC50
[2] = Endometrial, 72 hours, read-out: Mean IC50
[3] = Example 24, Squamous, read-out: Mean
[4] = Example 24, Squamous, read-out: Trial A
[5] = Example 24, Squamous, read-out: Trial B
[6] = Example 24, Endometrial, read-out: Mean
[7] = Example 24, Endometrial, read-out: Trial A
[8] = Example 24, Endometrial, read-out: Trial B

IC50 (H929 cells; H929, Human Myeloma, 72 hours, read-out: Mean IC50): 4.5 µM
IC50 (A2780 cells; 72 hours, read-out: Mean IC50): 1.14 µM
IC50 (A2780CP cells; Ovarian, 72 hours, read-out: Mean IC50): 2.28 µM
IC50 (MDA-MB-468 cells; 72 hours, read-out: Mean IC50): 2.05 µM
IC50 (MM.1s cells; MM.IS, Human Myeloma, 72 hours, read-out: Mean IC50): 1.67 µM
IC50 (H1975 (EGFR mut) cells; NCI-H1975, Non Small Cell Lung, 72 hours, read-out: Mean IC50): 1.84 µM
IC50 (MDA-MB-231 cells; 72 hours, read-out: Mean IC50): 1.62 µM
IC50 (BxPC-3 cells; 72 hours, read-out: Mean IC50): 1.6 µM
IC50 (OCI-LY3 cells; 72 hours, read-out: Mean IC50): 2.38 µM
IC50 (MIA PaCa-2 cells; 72 hours, read-out: Mean IC50): 1.81 µM
SMILES: COc1ccc2c3c([nH]c2c1)C(CC(CC1=NCCc2c1[nH]c1cc(OC)ccc21)c1ccc(O)c(OC)c1)=NCC3 [compound 562]
IC50 (JIM1 cells; JIM1, Human Myeloma, 72 hours, read-out: Mean IC50): 3.95 µM
IC50 (KMS-34 cells; KMS-34, Human Myeloma, 72 hours, read-out: Mean IC50): 5.45 µM
IC50 (KHM-1B cells; Human Myeloma, 72 hours, read-out: Mean IC50): 3.37 µM
IC50 (KMS-11 cells; KMS-11, Human Myeloma, 72 hours, read-out: Mean IC50): 4.93 µM
IC50 (A498 cells; A498, Renal, 72 hours, read-out: Mean IC50): 1.76 µM
IC50 (KMM-1 cells; KMM-1, Human Myeloma, 72 hours, read-out: Mean IC50): 4.04 µM
IC50 (FaDu cells; [1]): 1.98 µM
IC50 (HEC-1a cells; [2]): 4.75 µM
IC50 (L363 cells; L363, Human Myeloma, 72 hours, read-out: Mean IC50): 2 µM
IC50 (SiHA cells; [1]): 5.13 µM
IC50 (DOHH-2 cells; 72 hours, read-out: Mean IC50): 2.42 µM
IC50 (AN3CA cells; [2]): 1.79 µM
IC50 (KMS-27 cells; KMS-27, Human Myeloma, 72 hours, read-out: Mean IC50): 2.1 µM
IC50 (HCC70 cells; 72 hours, read-out: Mean IC50): 3.45 µM
IC50 (MOLP-8 cells; MOLP-8, Human Myeloma, 72 hours, read-out: Mean IC50): 1.38 µM

IC50 (H929 cells; Example 24, H929, human myeloma, read-out: Mean): 5.96 µg/mL
IC50 (H929 cells; Example 24, H929, human myeloma, read-out: Trial A): 6.5 µg/mL
IC50 (H929 cells; Example 24, H929, human myeloma, read-out: Trial B): 5.42 µg/mL
IC50 (A2780 cells; Example 24, read-out: Mean): 2.58 µg/mL
IC50 (A2780 cells; Example 24, read-out: Trial A): 2.67 µg/mL
IC50 (A2780 cells; Example 24, read-out: Trial B): 2.49 µg/mL
IC50 (A2780CP cells; Example 24, Ovarian, read-out: Mean): 3.27 µg/mL
IC50 (A2780CP cells; Example 24, Ovarian, read-out: Trial A): 3.57 µg/mL
IC50 (A2780CP cells; Example 24, Ovarian, read-out: Trial B): 2.96 µg/mL
IC50 (MDA-MB-468 cells; Example 24, read-out: Mean): 2.79 µg/mL
IC50 (MDA-MB-468 cells; Example 24, read-out: Trial A): 2.9 µg/mL
IC50 (MDA-MB-468 cells; Example 24, read-out: Trial B): 2.68 µg/mL
IC50 (MM.1s cells; Example 24, MM.1S, human myeloma, read-out: Mean): 2.57 µg/mL
IC50 (MM.1s cells; Example 24, MM.1S, human myeloma, read-out: Trial A): 2.48 µg/mL
IC50 (MM.1s cells; Example 24, MM.1S, human myeloma, read-out: Trial B): 2.66 µg/mL
IC50 (H1975 (EGFR mut) cells; NCI-H1975, Example 24, Non Small Cell Lung, read-out: Mean): 2.9 µg/mL
IC50 (H1975 (EGFR mut) cells; NCI-H1975, Example 24, Non Small Cell Lung, read-out: Trial A): 2.92 µg/mL
IC50 (H1975 (EGFR mut) cells; NCI-H1975, Example 24, Non Small Cell Lung, read-out: Trial B): 2.87 µg/mL
IC50 (MDA-MB-231 cells; Example 24, read-out: Mean): 3.09 µg/mL
IC50 (MDA-MB-231 cells; Example 24, read-out: Trial A): 3.1 µg/mL
IC50 (MDA-MB-231 cells; Example 24, read-out: Trial B): 3.08 µg/mL
IC50 (BxPC-3 cells; Example 24, read-out: Mean): 3.39 µg/mL
IC50 (BxPC-3 cells; Example 24, read-out: Trial A): 3.45 µg/mL
IC50 (BxPC-3 cells; Example 24, read-out: Trial B): 3.33 µg/mL
IC50 (OCI-LY3 cells; Example 24, read-out: Mean): 5.7 µg/mL
IC50 (OCI-LY3 cells; Example 24, read-out: Trial A): 3.87 µg/mL
IC50 (OCI-LY3 cells; Example 24, read-out: Trial B): 7.54 µg/mL
IC50 (MIA PaCa-2 cells; Example 24, read-out: Mean): 3.49 µg/mL
IC50 (MIA PaCa-2 cells; Example 24, read-out: Trial A): 3.81 µg/mL
IC50 (MIA PaCa-2 cells; Example 24, read-out: Trial B): 3.17 µg/mL
SMILES: COc1ccc2c3c([nH]c2c1)C(CC(CC1=NCCc2c1[nH]c1cc(OC)ccc21)c1cccc(Oc2ccccc2)c1)=NCC3 [compound 594, diharmaline 3-phenoxybenzaldehyde]
IC50 (JIM1 cells; Example 24, JIM1, human myeloma, read-out: Mean): 7.67 µg/mL
IC50 (JIM1 cells; Example 24, JIM1, human myeloma, read-out: Trial A): 7.41 µg/mL
IC50 (JIM1 cells; Example 24, JIM1, human myeloma, read-out: Trial B): 7.92 µg/mL
IC50 (KMS-34 cells; Example 24, KMS-34, human myeloma, read-out: Mean): 3.89 µg/mL
IC50 (KMS-34 cells; Example 24, KMS-34, human myeloma, read-out: Trial A): 4.23 µg/mL
IC50 (KMS-34 cells; Example 24, KMS-34, human myeloma, read-out: Trial B): 3.55 µg/mL
IC50 (KHM-1B cells; Example 24, human myeloma, read-out: Mean): 6.65 µg/mL
IC50 (KHM-1B cells; Example 24, human myeloma, read-out: Trial A): 6.48 µg/mL
IC50 (KHM-1B cells; Example 24, human myeloma, read-out: Trial B): 6.81 µg/mL
IC50 (KMS-11 cells; Example 24, KMS-11, human myeloma, read-out: Mean): 6.04 µg/mL
IC50 (KMS-11 cells; Example 24, KMS-11, human myeloma, read-out: Trial A): 6.43 µg/mL
IC50 (KMS-11 cells; Example 24, KMS-11, human myeloma, read-out: Trial B): 5.64 µg/mL
IC50 (A498 cells; Example 24, A498, RCC, read-out: Mean): 4.69 µg/mL
IC50 (A498 cells; Example 24, A498, RCC, read-out: Trial A): 4.82 µg/mL
IC50 (A498 cells; Example 24, A498, RCC, read-out: Trial B): 4.56 µg/mL
IC50 (KMM-1 cells; Example 24, KMM-1, human myeloma, read-out: Mean): 2.57 µg/mL
IC50 (KMM-1 cells; Example 24, KMM-1, human myeloma, read-out: Trial A): 2.53 µg/mL
IC50 (KMM-1 cells; Example 24, KMM-1, human myeloma, read-out: Trial B): 2.61 µg/mL
IC50 (FaDu cells; [3]): 4.62 µg/mL
IC50 (FaDu cells; [4]): 3.78 µg/mL
IC50 (FaDu cells; [5]): 5.45 µg/mL
IC50 (HEC-1a cells; [6]): 3.29 µg/mL
IC50 (HEC-1a cells; [7]): 3.15 µg/mL
IC50 (HEC-1a cells; [8]): 3.42 µg/mL
IC50 (L363 cells; Example 24, L363, human myeloma, read-out: Mean): 3.64 µg/mL
IC50 (L363 cells; Example 24, L363, human myeloma, read-out: Trial A): 3.67 µg/mL
IC50 (L363 cells; Example 24, L363, human myeloma, read-out: Trial B): 3.6 µg/mL
IC50 (SiHA cells; [3]): 8.73 µg/mL
IC50 (SiHA cells; [4]): 8.56 µg/mL
IC50 (SiHA cells; [5]): 8.89 µg/mL
IC50 (DOHH-2 cells; Example 24, read-out: Mean): 2.64 µg/mL
IC50 (DOHH-2 cells; Example 24, read-out: Trial A): 2.58 µg/mL
IC50 (DOHH-2 cells; Example 24, read-out: Trial B): 2.71 µg/mL
IC50 (AN3CA cells; [6]): 2.79 µg/mL
IC50 (AN3CA cells; [7]): 2.79 µg/mL
IC50 (AN3CA cells; [8]): 2.8 µg/mL
IC50 (KMS-27 cells; Example 24, KMS-27, human myeloma, read-out: Mean): 4.14 µg/mL
IC50 (KMS-27 cells; Example 24, KMS-27, human myeloma, read-out: Trial A): 5.54 µg/mL
IC50 (KMS-27 cells; Example 24, KMS-27, human myeloma, read-out: Trial B): 2.73 µg/mL
IC50 (HCC70 cells; Example 24, read-out: Mean): 6.87 µg/mL
IC50 (HCC70 cells; Example 24, read-out: Trial A): 6.15 µg/mL
IC50 (HCC70 cells; Example 24, read-out: Trial B): 7.59 µg/mL
IC50 (MOLP-8 cells; Example 24, MOLP-8, human myeloma, read-out: Mean): 2.72 µg/mL
IC50 (MOLP-8 cells; Example 24, MOLP-8, human myeloma, read-out: Trial A): 2.73 µg/mL
IC50 (MOLP-8 cells; Example 24, MOLP-8, human myeloma, read-out: Trial B): 2.7 µg/mL
